In PubChem BioAssay (NCI):
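Where inhibition never reached the appropriate level, the endpoint shown equals the highest concentration tested. Otherwise, values were interpolated linearly from a five-concentration, 48-hour dose response in 96-well plates. GI50 is the concentration that inhibits growth by half. The concentration for full growth arrest is given as TGI.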

Columns and labels:
Test in all cases: DTP human tumour cell line panel, 48 h
RPMI-8226 leukemia = tested on: RPMI-8226 leukemia
MOLT-4 leukemia = tested on: MOLT-4 leukemia
NCI-H460 lung = tested on: NCI-H460 lung
SK-MEL-28 melanoma = tested on: SK-MEL-28 melanoma
HL-60(TB) leukemia = tested on: HL-60(TB) leukemia
SF-268 CNS = tested on: SF-268 CNS
PC-3 prostate = tested on: PC-3 prostate
KM12 colon = tested on: KM12 colon
RXF 393 renal = tested on: RXF 393 renal
EKVX NSCLC = tested on: EKVX NSCLC
NCI-H522 lung = tested on: NCI-H522 lung
MCF7 breast = tested on: MCF7 breast
OVCAR-4 ovarian = tested on: OVCAR-4 ovarian
OVCAR-5 ovarian = tested on: OVCAR-5 ovarian
MDA-MB-435 = tested on: MDA-MB-435
UACC-62 melanoma = tested on: UACC-62 melanoma
HCC-2998 colon = tested on: HCC-2998 colon
SF-539 CNS = tested on: SF-539 CNS
MDA-MB-231 breast = tested on: MDA-MB-231 breast
HCT-15 colon = tested on: HCT-15 colon
HS 578T breast = tested on: HS 578T breast
HOP-62 NSCLC = tested on: HOP-62 NSCLC
NCI/ADR-RES ovarian = tested on: NCI/ADR-RES ovarian
CAKI-1 renal = tested on: CAKI-1 renal
A498 renal = tested on: A498 renal
OVCAR-8 ovarian = tested on: OVCAR-8 ovarian
HCT-116 colon = tested on: HCT-116 colon
K-562 leukemia = tested on: K-562 leukemia
UO-31 renal = tested on: UO-31 renal
IGROV1 ovarian = tested on: IGROV1 ovarian
COLO 205 colon = tested on: COLO 205 colon
SF-295 CNS = tested on: SF-295 CNS
SR leukemia = tested on: SR leukemia
SNB-75 CNS = tested on: SNB-75 CNS
M14 melanoma = tested on: M14 melanoma
SK-OV-3 ovarian = tested on: SK-OV-3 ovarian
SK-MEL-5 melanoma = tested on: SK-MEL-5 melanoma
TK-10 renal = tested on: TK-10 renal
U251 CNS = tested on: U251 CNS
SN12C renal = tested on: SN12C renal
UACC-257 melanoma = tested on: UACC-257 melanoma
A549 NSCLC = tested on: A549 NSCLC
SW-620 colon = tested on: SW-620 colon
NCI-H226 lung = tested on: NCI-H226 lung
BT-549 breast = tested on: BT-549 breast
LOX IMVI melanoma = tested on: LOX IMVI melanoma
ACHN renal = tested on: ACHN renal
SNB-19 CNS = tested on: SNB-19 CNS
HT29 colon = tested on: HT29 colon
OVCAR-3 ovarian = tested on: OVCAR-3 ovarian
SK-MEL-2 melanoma = tested on: SK-MEL-2 melanoma
786-0 renal = tested on: 786-0 renal
NCI-H23 lung = tested on: NCI-H23 lung
CCRF-CEM leukemia = tested on: CCRF-CEM leukemia
DU-145 prostate = tested on: DU-145 prostate

O=C1OCC2=C1C(c1cccc(Cl)c1)c1cc3c(cc1N2CCO)OCO3 (configuration not stated)
GI50 (RPMI-8226 leukemia): 535 nM
TGI (RPMI-8226 leukemia): 35800 nM
GI50 (MOLT-4 leukemia): 1140 nM
TGI (MOLT-4 leukemia): 97800 nM
GI50 (NCI-H460 lung): 414 nM
TGI (NCI-H460 lung): > 35300 nM
GI50 (SK-MEL-28 melanoma): 755 nM
TGI (SK-MEL-28 melanoma): > 100000 nM
GI50 (HL-60(TB) leukemia): 328 nM
TGI (HL-60(TB) leukemia): 3700 nM
GI50 (SF-268 CNS): 700 nM
TGI (SF-268 CNS): 34600 nM
GI50 (PC-3 prostate): 381 nM
TGI (PC-3 prostate): > 43700 nM
GI50 (KM12 colon): 398 nM
TGI (KM12 colon): 29600 nM
GI50 (RXF 393 renal): 278 nM
GI50 (EKVX NSCLC): 2590 nM
TGI (EKVX NSCLC): > 87200 nM
GI50 (NCI-H522 lung): 228 nM
TGI (NCI-H522 lung): 16200 nM
GI50 (MCF7 breast): 313 nM
TGI (MCF7 breast): > 100000 nM
GI50 (OVCAR-4 ovarian): 696 nM
TGI (OVCAR-4 ovarian): > 100000 nM
GI50 (OVCAR-5 ovarian): 1260 nM
TGI (OVCAR-5 ovarian): > 100000 nM
GI50 (MDA-MB-435): 38.3 nM
TGI (MDA-MB-435): 233 nM
GI50 (UACC-62 melanoma): 360 nM
TGI (UACC-62 melanoma): > 44600 nM
GI50 (HCC-2998 colon): 1070 nM
TGI (HCC-2998 colon): 14300 nM
GI50 (SF-539 CNS): 303 nM
GI50 (MDA-MB-231 breast): 1660 nM
TGI (MDA-MB-231 breast): 14400 nM
GI50 (HCT-15 colon): 428 nM
TGI (HCT-15 colon): > 100000 nM
GI50 (HS 578T breast): 445 nM
TGI (HS 578T breast): > 58200 nM
GI50 (HOP-62 NSCLC): 481 nM
TGI (HOP-62 NSCLC): 57700 nM
GI50 (NCI/ADR-RES ovarian): 301 nM
TGI (NCI/ADR-RES ovarian): > 41000 nM
GI50 (CAKI-1 renal): 216 nM
TGI (CAKI-1 renal): 22600 nM
GI50 (A498 renal): 230 nM
TGI (A498 renal): 2550 nM
GI50 (OVCAR-8 ovarian): 503 nM
TGI (OVCAR-8 ovarian): > 65800 nM
GI50 (HCT-116 colon): 466 nM
TGI (HCT-116 colon): > 36300 nM
GI50 (K-562 leukemia): 354 nM
TGI (K-562 leukemia): > 100000 nM
GI50 (UO-31 renal): 465 nM
TGI (UO-31 renal): > 65400 nM
GI50 (IGROV1 ovarian): 2790 nM
TGI (IGROV1 ovarian): > 74400 nM
GI50 (COLO 205 colon): 360 nM
TGI (COLO 205 colon): 1380 nM
GI50 (SF-295 CNS): 260 nM
TGI (SF-295 CNS): 22400 nM
GI50 (SR leukemia): 359 nM
TGI (SR leukemia): 70400 nM
GI50 (SNB-75 CNS): 281 nM
TGI (SNB-75 CNS): > 100000 nM
GI50 (M14 melanoma): 360 nM
TGI (M14 melanoma): > 22500 nM
GI50 (SK-OV-3 ovarian): 412 nM
TGI (SK-OV-3 ovarian): 10500 nM
GI50 (SK-MEL-5 melanoma): 256 nM
TGI (SK-MEL-5 melanoma): 12500 nM
GI50 (TK-10 renal): 17700 nM
TGI (TK-10 renal): > 100000 nM
GI50 (U251 CNS): 383 nM
TGI (U251 CNS): 17700 nM
GI50 (SN12C renal): 817 nM
TGI (SN12C renal): > 63700 nM
GI50 (UACC-257 melanoma): 256 nM
TGI (UACC-257 melanoma): > 44500 nM
GI50 (A549 NSCLC): 498 nM
TGI (A549 NSCLC): 33500 nM
GI50 (SW-620 colon): 358 nM
TGI (SW-620 colon): > 100000 nM
GI50 (NCI-H226 lung): 753 nM
TGI (NCI-H226 lung): 20000 nM
GI50 (BT-549 breast): 603 nM
GI50 (LOX IMVI melanoma): 600 nM
TGI (LOX IMVI melanoma): 27000 nM
GI50 (ACHN renal): 785 nM
TGI (ACHN renal): > 100000 nM
GI50 (SNB-19 CNS): 784 nM
TGI (SNB-19 CNS): > 100000 nM
GI50 (HT29 colon): 364 nM
TGI (HT29 colon): 4730 nM
GI50 (OVCAR-3 ovarian): 270 nM
TGI (OVCAR-3 ovarian): 811 nM
GI50 (SK-MEL-2 melanoma): 2440 nM
TGI (SK-MEL-2 melanoma): > 44300 nM
GI50 (786-0 renal): 558 nM
TGI (786-0 renal): > 41800 nM
GI50 (NCI-H23 lung): 502 nM
TGI (NCI-H23 lung): > 100000 nM
GI50 (CCRF-CEM leukemia): 527 nM
TGI (CCRF-CEM leukemia): > 100000 nM
GI50 (DU-145 prostate): 512 nM
TGI (DU-145 prostate): 16900 nM
